Measurements from PubChem BioAssay AID179 (DTP/NCI, 2004).
Several values for one entry are separate records, joined by “and”; a condition that tells them apart may be missing. Equal entries are not always repeated. Activity calls are given as the source filed them.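 Rule for the calls: active = compounds giving half or more protection of infected cells from virus-caused growth loss, again on retest; inactive = the rest.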

Test system: CEM cells HIV-1 protection, formazan growth assay
Assay: NCI AIDS Antiviral Assay
Conditions: for IC50: measured here: growth of uninfected CEM cells
Procedure, shortened: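 Steps: treat uninfected and HIV-1-infected human CEM cells at five drug levels; quantify growth by soluble formazan; retest any compound reaching 50% protection; classify actives from the retest.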

| Compound | EC50 [µM] | IC50 | outcome |
| --- | --- | --- | --- |
| COc1cccc(CCn2c(N)c(-c3ccccc3)c3ccc([N+](=O)[O-])cc3c2=O)c1 | > 200 | 7.41 µM | – |
| CC(=O)OC1(C#N)CC2OC1C1C2N=NN1C(=O)OC(C)(C)C (stereo not drawn) | > 209 | 28.8 µM | – |
| N#Cc1nc(CN2C(=O)c3ccccc3C2=O)oc1N | 5.89 | > 200 µM | – |
| Cc1cn(CCCCCOC(=O)NC(CCCN=C(N)N)C(=O)O)c(=O)[nH]c1=O (stereo not drawn) | > 200 | 18.2 µM | – |
| CCCSS/C(CCO)=C(\C)N(C=O)Cc1cnc(C)nc1N | > 200 | 10.5 µM | – |
| O=C(O)Cc1ccc2c(c1)sc1nc(-c3ccc(Br)cc3)cn12 | > 200 | 141 µM | – |
| CC(/C=N\NC(=S)N1CCCCC1)=N/NC(=S)N1CCCCC1 | > 200 | 1.78 µM | – |
| CC(=O)Nc1c(Nc2ccc3c(=O)[nH]ccc3c2C)cc[nH]c1=O | > 398 | 191 µM | – |
| O=C1NS(=O)(=O)NC1(c1ccccc1)c1ccccc1 | – | – | inactive |
| COc1ccc(O[C@H](COCc2ccccc2)C[C@@H]2COC(C)(C)O2)cc1 | – | – | inactive |
| COC(=O)C1=C(C)N2CCOC2CC1c1ccccc1 (stereo not drawn) | > 200 | 135 µM | – |
| CC1CCC2c3c([nH]c4ccccc34)C3C(=O)N(C4CCCCC4)C(=O)C3C2C1 (stereo not drawn) | > 200 | 9.33 µM | – |
| CNC(=O)CN(CC(N)=O)C(=O)NC | > 891 | > 891 µM | – |
| CC(=O)O[C@H]1CC[C@@]2(C)C(=CC[C@@H]3C2CC[C@@]2(C)C3CC[C@@H]2c2nc(C)cs2)C1 (stereo partly drawn) | > 60.3 | > 60.3 µM | – |
| OC1(c2cccc3ccccc23)CCCc2cc3c(ccc4ccccc43)cc21 (stereo not drawn) | > 200 | 155 µM | – |
| Cc1nnc(SCC2=C(C(=O)O)N3C(=O)C(NC(=O)Cn4cnnn4)C3SC2)s1 (stereo not drawn) | > 200 | > 200 µM | – |
| Cc1cnoc1/N=C1\C=C(Nc2oncc2C)C(=O)c2ccccc21 | > 4.37 | > 4.37 µM | – |
| COc1ccc(C2=NNC(=O)OC2c2ccccc2)cc1 (stereo not drawn) | > 63.1 | 7.24 µM | – |
| COC(=O)Cc1c(-c2[nH]c3ccccc3c2CC(=O)OC)[nH]c2ccccc12 | – | – | inactive |
| CC1Cc2c(nc3n(c2=O)CCCCC3)O1 (stereo not drawn) | > 407 | > 407 µM | – |
| Cc1cn(C2CC3C(COC(CC[Se]c4ccccc4)N3O)O2)c(=O)[nH]c1=O (stereo not drawn) | 24 | 158 µM | – |
| COc1cc2nc(CC(O)c3nc4cc(OC)c(OC)cc4[nH]3)[nH]c2cc1OC (stereo not drawn) | > 200 | 17.4 µM | – |

| Compound | EC50 [µM] | IC50 | outcome |
| --- | --- | --- | --- |
| CC1C(=O)C2CC3(C)CO[C@@]2(C3O)[C@@]2(C)CC[C@@H]12 (stereo partly drawn) | – | – | inactive |
| CC(=O)Oc1ccc2cc(-c3ccccc3OC(C)=O)c(=O)oc2c1 | > 200 | 74.1 µM | – |
| Cn1cc(NC(=O)Nc2cc(C(=O)Nc3cc(C(=O)Nc4cc(C(=O)Nc5ccc(P(=O)(O)O)c6cc(P(=O)(O)O)ccc56)n(C)c4)n(C)c3)n(C)c2)cc1C(=O)Nc1cc(C(=O)Nc2cc(C(=O)Nc3ccc(P(=O)(O)O)c4cc(P(=O)(O)O)ccc34)n(C)c2)n(C)c1 | 1.29 | 37.2 µM | – |
| COc1ccc(OC2OC(CO)C(O)C(O)C2O)cc1 (stereo not drawn) | > 200 | > 200 µM | – |
| CC#N.CC#N.COC(=O)[C@@H]1CCC(=O)[N-]1.COC(=O)[C@@H]1CCC(=O)[N-]1.COC(=O)[C@@H]1CCC(=O)[N-]1.COC(=O)[C@@H]1CCC(=O)[N-]1.[Rh+2].[Rh+2] | > 200 | > 200 µM | – |
| Cc1cc(-n2nnc(C(=O)O)c2-c2ccccc2)c2ccc(Cl)cc2n1 | > 200 | > 200 µM | – |
| C/C(=N/NC(=S)N1CCCCCC1)c1ccccc1O | > 200 | 4.27 µM | – |
| CCCC(NCCCCCCNC(CCC)C(=O)O)C(=O)O (stereo not drawn) | > 525 | > 525 µM | – |
| CCOC(=O)c1cc(-c2cc(OC)c(OC)c([N+](=O)[O-])c2)c([N+](=O)[O-])n1C | > 200 | 10.2 µM | – |
| CCC(=O)CCCC=C(c1cc(Cl)c(OC)c(C=O)c1)c1cc(Cl)c(OC)c(C=O)c1 | > 200 | 1.12 µM | – |
| C=CC(C)(C)c1cccc2[nH]c3c(c12)CC1CCC2(O)C4=CC(=O)C5OC4(CCC2(C)[C@@]31C)OC5(C)C (stereo partly drawn) | – | – | inactive |
| COc1cccc2c1CCc1cc3c(N)nc(N)nc3nc1-2 | > 200 | 5.25 µM | – |
| CC(C)(C)C1CCC2c3c([nH]c4ccccc34)C3C(=O)N(c4cc(Br)cc(Br)c4)C(=O)C3C2C1 (stereo not drawn) | > 200 | 12.6 µM | – |
| C[N+](C)(C)Cc1c(CC#N)[nH]c2ccccc12 | > 123 | 66.1 µM | – |
| COc1ccc(/C=C/C(=O)c2ccccc2)cc1 | > 41.7 | 24.5 µM | – |
| O=C1CC(=O)NC(=NN2C(=O)/C(=C/c3ccccc3)N=C2c2ccccc2)N1 | > 200 | > 200 µM | – |
| COC(=O)/C(C#N)=C(\Nc1ccccc1)N1CCCC1 | > 200 | 138 µM | – |
| S=C(Nc1ccc(N=Nc2ccccc2)cc1)SCc1ccc2c(c1)OCO2 | > 200 | 10.7 µM | – |
| C=C1OC2OC(C)C(NC(=O)OCC(Cl)(Cl)Cl)C(OC(C)=O)C2O1 (stereo not drawn) | > 234 | > 234 µM | – |
| COc1c(OC)c(OC)c2c(=O)c(OC)c(-c3ccc4c(c3)OCO4)oc2c1OC | > 200 | > 200 µM | – |
| COC(=O)c1cc(C(=CCN[C@H]2CC[C@@]3(C)[C@@H](CC[C@@H]4[C@@H]3CC[C@]3(C)[C@@H]([C@H](C)CCCC(C)C)CC[C@@H]43)C2)c2cc(Cl)c(OC)c(C(=O)OC)c2)cc(Cl)c1OC | > 100 | > 100 µM | – |
| O=c1c2ncn(COCCCl)c2n(-c2ccccc2)c(=S)n1-c1ccccc1 | – | – | inactive |

| Compound | EC50 [µM] | IC50 | outcome |
| --- | --- | --- | --- |
| CCOC(=O)C1C(c2ccc(OC)cc2)c2c([nH]n(-c3ccccc3)c2=O)CC1(C)O (stereo not drawn) | – | – | inactive |
| CC(=O)Oc1cc(C)c(OC(C)=O)c2c1[C@H]1CC[C@]3(C)[C@@H](OC(C)=O)CC[C@H]3[C@@H]1CC2 | > 200 | 16.6 µM | – |
| C(/C=C/Nc1ccc(-c2ccccc2)cc1)=Nc1ccc(-c2ccccc2)cc1 | > 200 | > 200 µM | – |
| N#CCCN(CCCN(C(=O)Nc1ccc(NC(=O)N(CCCN(CCC#N)C(N)=O)c2ccccc2)cc1)c1ccccc1)C(N)=O | > 200 | > 200 µM | – |
| Cc1ccc2nn(-c3ccc(O)cc3)[n+]([O-])c2c1 | > 200 | > 200 µM | – |
| Cc1cn(C2CC(C)N(CCO)O2)c(=O)[nH]c1=O (stereo not drawn) | > 200 | > 200 µM | – |
| CCOc1ncn(-c2ccc(NC(=S)Nc3cnccn3)cc2)n1 | 129 | > 200 µM | – |
| CN(N)c1cnn(-c2ccccc2)c(=O)c1Cl | > 200 | > 200 µM | – |
| COc1cc(OC)nc(-n2c(N)c(C#N)c3ccc([N+](=O)[O-])cc3c2=O)n1 | > 200 | > 200 µM | – |
| O=Cc1ccc2c(c1)CC1(C2)Cc2ccc3c(c2C1)CCC3 (stereo not drawn) | > 200 | 7.41 µM | – |
| [Li+] | – | – | inactive |
| COC(=O)c1ccccc1NC(=O)C(=O)CC(=O)CC(c1ccccc1)c1c(O)c2ccccc2oc1=O (stereo not drawn) | > 490 | 245 µM | – |
| O=C1C2C(C(=O)N1c1ccccc1)C1c3ccccc3C2C2C(=O)N(c3ccccc3)C(=O)C21 (stereo not drawn) | – | – | inactive |
| CC(CO)CS(=O)(=O)O (stereo not drawn) | > 200 | > 200 µM | – |
| N#Cc1c(-c2ccccc2)cc(-c2ccccc2)n(C2OC(CO)C(O)C(O)C2O)c1=O (stereo not drawn) | > 219 | 214 µM and > 60.3 µM | – |
| O=C(O)Cn1cc([N+](=O)[O-])c(=O)c2ccccc21 | > 200 | > 200 µM | – |
| CSc1ccc(NC(=O)Nc2cc(C)ccn2)cc1 | > 200 | 191 µM | – |
| Cc1cc(N2CCCC2)c([N+](=O)[O-])cc1[N+](=O)[O-] | > 200 | > 200 µM | – |
| CN(C)c1ccc(/C=c2\sc3nnc(-c4cccnc4)n3c2=O)cc1 | > 20.9 | > 20.9 µM | – |
| O/N=C(/Cc1ccccc1)CC(O)(C(F)(F)F)C(F)(F)F | > 200 | 70.8 µM | – |
| O=C1CNc2cc(N3CCN(c4ccccc4)CC3)ccc2N1 | > 200 | 25.1 µM | – |
| C1CCSCCCCCSCCCCCSCCCCCSCC1 | > 200 | 44.7 µM | – |

| Compound | EC50 [µM] | IC50 | outcome |
| --- | --- | --- | --- |
| CSc1nc(NC2OC(COC(C)=O)C(OC(C)=O)C(OC(C)=O)C2OC(C)=O)c(N=C(C)C(C)=O)c(=O)[nH]1 (stereo not drawn) | – | – | inactive |
| CC(C)(/C=N/O)/[N+]([O-])=C/c1ccccc1 | > 200 | > 200 µM | – |
| Cc1cc(N=O)cc(C)c1O | > 200 | 5.13 µM | – |
| CCOc1ccccc1NC(=O)C(=O)C(c1ccccc1)S(=O)(=O)Cc1ccccc1 (stereo not drawn) | > 200 | 120 µM | – |
| C#CCN(C(=O)C(F)(F)F)c1ccc(C(=O)c2ccc(N(CC#C)C(=O)C(F)(F)F)cc2)cc1 | > 28.2 | > 28.2 µM | – |
| Clc1ccc(C=NC23CC4CC(CC(C4)C2)C3)c(Cl)c1 | – | – | inactive |
| COC(=O)c1ccc(N=Cc2ccc(C=Nc3ccc(C(=O)OC)cc3)cc2)cc1 | > 12.9 | > 12.9 µM | – |
| Cc1ccc(C2=NNc3n[nH]c(=S)n3N2)cc1 | > 75.9 | > 75.9 µM | – |
| C=Cc1cncc(C#N)c1CCc1c(C#N)cncc1C=C | > 34.7 | > 34.7 µM | – |
| NC(CCc1ncc(-c2ccccc2)s1)C(=O)O (stereo not drawn) | – | – | inactive |
| COc1ccc(C2c3cc4c(cc3OC(NCCO)C2C)OCO4)cc1 (stereo not drawn) | > 200 | 21.9 µM | – |
| COc1cc2c(cc1OC)C(=O)C(C1=C(SC(=N)N)C(=O)c3cc(OC)c(OC)cc31)C2 (stereo not drawn) | > 28.2 | > 28.2 µM | – |
| CC1(C)CCc2cc3c(cc2O1)OC(C)(C)CC3=O | – | – | inactive |
| CC(NNC(=O)c1ccncc1)c1ccccc1 (stereo not drawn) | > 200 | 75.9 µM | – |
| CN(C)c1nc2sc3c(c2c(=O)o1)CCCC3 | > 200 | 51.3 µM | – |
| COC(=O)C(CC(C)C)NC(=O)NC12CC3CC(CC(F)(C3)C1)C2 (stereo not drawn) | > 75.9 | > 75.9 µM | – |
| O=c1c2cccnc2ncn1CCN1CCOCC1 | – | – | inactive |
| O=[N+]([O-])/C=C/c1c[nH]c2c1ccc1ccccc12 | > 200 | 4.27 µM | – |
| COCOc1ccc(C2(O)Oc3cc(OCOC)ccc3C2C)c(O)c1 (stereo not drawn) | > 200 | 24 µM | – |
| NC1=NCN2C(=N1)OC1C(O)C(CO)OC12 (stereo not drawn) | > 200 | > 200 µM | – |
